The results in this text go back to US20120302569A1, “PHENYL-THIAZOLYL INHIBITORS OF PRO-MATRIX METALLOPROTEINASE ACTIVATION” (priority 2011, published 2012).

Structures can show the parent of a compound that is named as a salt. A value given as a limit tells only on which side of the number the result lay.

Assay [1] addresses T1, proMMP9(67-444;ΔFnII) (SEQ ID NO:5) (Homo sapiens, UniProt P14780, DEL216-390).
T1 construct: start methionine (N); made in house; host or cells: E. coli BL21(DE3) RIL
T1 sequence (P14780 with tags, fused parts or gaps DEL216-390): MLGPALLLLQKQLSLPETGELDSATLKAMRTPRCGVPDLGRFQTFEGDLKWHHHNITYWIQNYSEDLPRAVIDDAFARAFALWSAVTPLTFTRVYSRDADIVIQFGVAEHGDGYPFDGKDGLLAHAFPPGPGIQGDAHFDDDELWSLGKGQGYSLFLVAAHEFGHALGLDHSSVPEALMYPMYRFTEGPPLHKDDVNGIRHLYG
Briefly: ThermoFluor with proMMP9(67-444;ΔFnII). As to conditions: read-out: proMMP9(67-444; ΔFnII) (SEQ ID NO: 5) binding. How it is done: (§1) The ThermoFluor® (TF) assay is a 384-well plate-based binding assay that measures thermal stability of proteins (Biomol Screen 2001, 6, 429-40; Biochemistry 2005, 44, 5258-66). The experiments were carried out using instruments available from Johnson & Johnson Pharmaceutical Research & Development, LLC. TF dye used in all experiments was […] (1,8-ANS) (Invitrogen: A-47).
(§2) Compounds were arranged in a pre-dispensed plate (Greiner Bio-one: 781280), wherein compounds were serially diluted in 100% DMSO across 11 columns within a series. Columns 12 and 24 were used as DMSO reference and contained no compound. For multiple compound concentration-response experiments, the compound aliquots (50 nL) were robotically predispensed directly into black 384-well polypropylene PCR microplates (Abgene: TF-0384/k) using a Cartesian Hummingbird liquid handler (DigiLab, Holliston, Mass.). Following compound dispense, protein and dye solutions were added to achieve the final assay volume of 3 μL. The assay solutions were overlayed with 1 μL of silicone oil (Fluka, type DC 200: 85411) to prevent evaporation.
(§3) Assay plates were robotically loaded onto a thermostatically controlled PCR-type thermal block and then heated from 40 to 90° C. at a ramp-rate of 1° C./min for all experiments. Fluorescence was measured by continuous illumination with UV light (Hamamatsu LC6) supplied via fiber optics and filtered through a band-pass filter (380-400 nm; >6 OD cutoff). Fluorescence emission of the entire 384-well plate was detected by measuring light intensity using a CCD camera (Sensys, Roper Scientific) filtered to detect 500±25 nm, resulting in simultaneous and independent readings of all 384 wells. A single image with 20-sec exposure time was collected at each temperature, and the sum of the pixel intensity in a given area of the assay plate was recorded vs temperature and fit to standard equations to yield the Tm (J Biomol Screen 2001, 6, 429-40).
(§4) Thermodynamic parameters necessary for fitting compound binding for each proMMP were estimated by differential scanning calorimetry (DSC) and from ThermoFluor® data. The heat capacity of unfolding for each protein was estimated from the molecular weight and from ThermoFluor® dosing data.
ThermoFluor® with proMMP9(67-444;ΔFnII) (SEQ ID NO:5)
The protein sample preparations had to include a desalting buffer exchange step via a PD-10 gravity column (GE Healthcare). The desalting buffer exchange was performed prior to diluting the protein to the final assay concentration of 3.5 μM proMMP9(67-444;ΔFnII) (SEQ ID NO:5). The concentration of proMMP9(67-444;ΔFnII) (SEQ ID NO:5) was determined spectrophotometrically based on a calculated extinction coefficient of ε280=33900 M^−1cm^−1, a calculated molecular weight of 22.6 kDa, and calculated pI of 5.20. ThermoFluor® reference conditions were defined as follows: 80 μg/mL (3.5 μM) proMMP9(67-444;ΔFnII) (SEQ ID NO:5), 50 μM 1,8-ANS, pH 7.0 Buffer (50 mM HEPES pH 7.0, 100 mM NaCl, 0.001% Tween-20, 2.5 mM MgCl2, 300 μM CaCl2). The thermodynamic parameters for proMMP9(67-444;ΔFnII) (SEQ ID NO:5) are as follows: Tm (° C.)=63 (+/−0.1), ΔUH(Tm) (cal mol^−1)=105000(+/−5000), ΔUS(Tm) (cal mol^−1 K^−1)=450, […].

The target in assay [2] is T2, proMMP9(20-445;ΔFnII) (SEQ ID NO:6) (Homo sapiens, UniProt P14780, DEL216-390).
T2 construct: start methionine (N); made in house; host or cells: E. coli BL21(DE3) RIL
T2 sequence (P14780 with tags, fused parts or gaps DEL216-390): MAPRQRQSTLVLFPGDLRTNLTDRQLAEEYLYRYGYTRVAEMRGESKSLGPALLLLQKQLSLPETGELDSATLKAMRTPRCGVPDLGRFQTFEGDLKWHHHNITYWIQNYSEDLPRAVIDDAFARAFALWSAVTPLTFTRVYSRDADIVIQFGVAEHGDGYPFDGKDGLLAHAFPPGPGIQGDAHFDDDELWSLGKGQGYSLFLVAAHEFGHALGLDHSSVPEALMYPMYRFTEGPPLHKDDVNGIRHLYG
Nature of the assay: ThermoFluor with proMMP9(20-445;ΔFnII). The settings on record: read-out: proMMP9(20-445; ΔFnII) (SEQ ID NO: 6) binding. Here is the method:
as §1, §2, §3, §4
ThermoFluor® with proMMP9(20-445;ΔFnII) (SEQ ID NO:6)
The protein sample preparations included a desalting buffer exchange step via a PD-10 gravity column (GE Healthcare). The desalting buffer exchange was performed prior to diluting the protein to the final assay concentration of 2.8 μM proMMP9(20-445;ΔFnII) (SEQ ID NO:6). The concentration of proMMP9(20-445;ΔFnII) (SEQ ID NO:6) was determined spectrophotometrically based on a calculated extinction coefficient of ε280=39880 M^−1cm^−1, a calculated molecular weight of 28.2 kDa, and calculated pI of 5.5. ThermoFluor® reference conditions were define as follows: 80 μg/mL (2.8 μM) proMMP9(20-445;ΔFnII) (SEQ ID NO:6), 50 μM 1,8-ANS, pH 7.0 Buffer (50 mM HEPES pH 7.0, 100 mM NaCl, 0.001% Tween-20, 2.5 mM MgCl2, 300 μM CaCl2). The thermodynamic parameters for proMMP9(20-445;ΔFnII) (SEQ ID NO:6) are as follows: Tm (° C.)=72 (+/−0.1), ΔUH(Tm) (cal mol^−1)=160000(+/−5000), ΔUS(Tm) (cal mol^−1 K^−1)=434, ΔUCp (cal mol^−1 K^−1)=2400.
On the technique in general: In DSF a fluorescence change marks the thermal transition of the protein.

Assay [3] concerns the target T3, full-length proMMP9(1-707) (SEQ ID NO:1) (Homo sapiens, UniProt P14780, R574P).
T3 construct: made in house; host or cells: HEK293 (proMMP9, secreted); E. coli (MMP3)
Briefly: proMMP9/MMP3 P126 Activation Assay. It is filed as biochemical. As to conditions: proMMP9(1-707) from HEK293 cells activated by catalytic MMP3. How it is done:
proMMP9/MMP3 P126 Activation Assay
The reaction volume was 50 μL. […] Reactivity of residual MMP3 towards P-126 substrate was minimal under these conditions.

T3 sequence (P14780 20-707 R574P): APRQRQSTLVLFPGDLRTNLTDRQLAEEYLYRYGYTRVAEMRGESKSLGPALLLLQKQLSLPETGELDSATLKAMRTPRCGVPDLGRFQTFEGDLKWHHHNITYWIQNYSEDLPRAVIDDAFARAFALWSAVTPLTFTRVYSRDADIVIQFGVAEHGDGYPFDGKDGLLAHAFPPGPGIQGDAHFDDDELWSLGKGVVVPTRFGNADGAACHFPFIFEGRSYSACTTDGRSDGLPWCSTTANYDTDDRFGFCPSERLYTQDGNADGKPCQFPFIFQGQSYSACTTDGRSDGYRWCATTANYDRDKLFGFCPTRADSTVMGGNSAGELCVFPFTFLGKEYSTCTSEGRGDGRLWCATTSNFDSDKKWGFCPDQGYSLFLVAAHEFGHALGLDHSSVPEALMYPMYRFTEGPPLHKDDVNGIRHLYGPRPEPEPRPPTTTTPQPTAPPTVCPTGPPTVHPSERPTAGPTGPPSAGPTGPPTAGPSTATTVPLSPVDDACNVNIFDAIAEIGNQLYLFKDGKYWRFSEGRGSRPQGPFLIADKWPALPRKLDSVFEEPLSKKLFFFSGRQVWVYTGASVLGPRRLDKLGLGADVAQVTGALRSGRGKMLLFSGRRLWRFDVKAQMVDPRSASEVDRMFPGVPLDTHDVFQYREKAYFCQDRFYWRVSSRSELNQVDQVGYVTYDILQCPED

As for `COc1ccc(F)cc1Nc1nc(-c2ccc(CN3CCC(F)CC3)cc2)cs1` [Example 62, N-(5-fluoro-2-methoxyphenyl)-4-(4-((4-fluoropiperidin-1-yl)methyl)phenyl)thiazol-2-amine.TFA], the Kd worked out at 5700 nM in assay [1] and 45000 nM in assay [2]. Further, the IC50 (commonly the point on the concentration scale where inhibition reaches its midpoint) in assay [3] was found to be 1600 nM.

On to `NC(=O)c1ccc(OC(F)(F)F)c(Nc2nc(-c3ccc(OCCN4CCC(F)CC4)cc3)cs2)c1` [Example 37, 3-((4-(4-(2-(4-fluoropiperidin-1-yl)ethoxy)phenyl)thiazol-2-yl)amino)-4-(trifluoromethoxy)benzamide.TFA], for which the Kd came out at 270 nM in assay [1] and 74 nM in assay [2]. Further, the midpoint of inhibition in assay [3], the IC50, lay at 360 nM.

As for `CC(C)Oc1ccc(S(N)(=O)=O)cc1Nc1nc(-c2ccc(CN3CCOCC3)cc2)cs1` [Example 59, 4-isopropoxy-3-((4-(4-(morpholinomethyl)phenyl)thiazol-2-yl)amino)benzenesulfonamide.TFA], the values for the Kd in assay [1] and in assay [2] were 180 nM and 98 nM, respectively. This compound had an IC50 in assay [3] of 300 nM.

Regarding `COc1ccc(F)cc1Nc1nc(-c2ccc(OCCN3CCC(F)(F)CC3)cc2)cs1` [Example 67, 4-(4-(2-(4,4-difluoropiperidin-1-yl)ethoxy)phenyl)-N-(5-fluoro-2-methoxyphenyl)thiazol-2-amine.TFA], the Kd is 7700 nM in assay [1] and above 9000 nM in assay [2]. In assay [3], this compound registered an IC50 of at least 20000 nM.

`CC(C)Oc1ccc(C(N)=O)cc1Nc1nc(-c2ccc(CN3CCC(F)CC3)cc2)cs1` [Example 54, 3-((4-(4-((4-fluoropiperidin-1-yl)methyl)phenyl)thiazol-2-yl)amino)-4-isopropoxybenzamide.TFA]: the figures for the Kd in assay [1] and in assay [2] were 110 nM and 31 nM, respectively. In assay [3], inhibition was half-maximal at 95 nM (IC50).

Take `COc1cc(C)c(C(N)=O)cc1Nc1nc(-c2ccc(OCCN3CCC(F)CC3)cc2)cs1` [Example 39, 5-((4-(4-(2-(4-fluoropiperidin-1-yl)ethoxy)phenyl)thiazol-2-yl)amino)-4-methoxy-2-methylbenzamide.TFA]: the Kd in assay [1] is 640 nM; in assay [2], 550 nM. The compound further displayed an IC50 in assay [3] of 720 nM.

On to `CCOc1ccncc1Nc1nc(-c2ccc(C3=CCNCC3)cc2)cs1` [Example 20, N-(4-Ethoxypyridin-3-yl)-4-(4-(1,2,3,6-tetrahydropyridin-4-yl)phenyl)thiazol-2-amine.TFA], for which the Kd in assay [1] stood at 69 nM; in assay [2] it was 380 nM. In addition, in assay [3], the midpoint of inhibition, the IC50, lay at 92 nM.

Consider `CC(C)Oc1ccc(S(N)(=O)=O)cc1Nc1nc(-c2ccc(OCCN3CCOCC3)cc2)cs1` [Example 28, 4-Isopropoxy-3-((4-(4-(2-morpholinoethoxy)phenyl)thiazol-2-yl)amino)benzenesulfonamide.TFA], for which the Kd in assay [1] was 110 nM; in assay [2], 75 nM. In assay [3], this compound yielded a 50% inhibitory concentration (IC50) of 100 nM.

On to `COc1ccc(F)cc1Nc1nc(-c2ccc(OCCN3CCC(F)CC3)cc2)cs1` [Example 68, N-(5-fluoro-2-methoxyphenyl)-4-(4-(2-(4-fluoropiperidin-1-yl)ethoxy)phenyl)thiazol-2-amine.TFA], for which the values for the Kd in assay [1] and in assay [2] were 2600 nM and above 19000 nM, respectively. In assay [3], this compound had an IC50 of 1300 nM.

Regarding `COc1ccc(F)cc1Nc1nc(-c2ccc(OCCCN3CCOCC3)cc2)cs1` [Example 71, N-(5-fluoro-2-methoxyphenyl)-4-(4-(3-morpholinopropoxy)phenyl)thiazol-2-amine.TFA], the values for the Kd in assay [1] and in assay [2] were 1800 nM and 44000 nM, respectively. This compound returned an IC50 in assay [3] of 200 nM.

Regarding `CC(C)Oc1ccc(S(N)(=O)=O)cc1Nc1nc(-c2ccc(N3CCN(Cc4ccccc4)CC3)cc2)cs1` [Example 6, 3-((4-(4-(4-Benzylpiperazin-1-yl)phenyl)thiazol-2-yl)amino)-4-isopropoxybenzenesulfonamide.TFA], the Kd in assay [1] was found to be 650 nM; in assay [2], 410 nM. For the same compound, the IC50 in assay [3] amounted to 1200 nM.
